Assay results published in article PMC11415492 (Nature Communications, 2024).
Values joined by “and” are separate entries in the source; they are usually repeats but may differ in a detail not shown here. Equal entries are not always repeated. Structures can show the parent of a compound that is named as a salt. Where two headings read alike, the source gives them in different places.

Assays:
[1] = Pharmacokinetic study in mice (plasma and brain), with estimated free drug concentrations; type: in vivo, mouse; details: for concentration at 0.25 h / concentration at 0.5 h / concentration at 1 h / concentration at 2 h / AUC(0-inf) / AUC(0-t) / Cmax: male, C57BL/6, mouse, 10 mg/kg; for concentration at 0.25 h / concentration at 0.5 h / concentration at 1 h / concentration at 2 h / AUC(0-inf) / AUC(0-t) / Cmax / Tmax / half-life / Vd/F: sc; for concentration at 0.25 h / concentration at 0.5 h / concentration at 1 h / concentration at 2 h: mice, 10 mg/kg s.c., individual animals; for Tmax / half-life / Vd/F: mouse; for half-life: read-out: T1/2z (converted); for Vd/F: read-out: VZ/F
[2] = system: adult human primary ventricular myocytes; experiment: Cardiotoxicity (pro-arrhythmia) assay in adult human primary cardiomyocytes; type: cell-based; details: for pro-arrhythmic potential: 0.1–10 µM
mMOR = biological target: T1, mMOR (Mus musculus, UniProt P42866); experiment: G protein activation BRET assay; type: cell-based; details: for Fig. S5h concentration-response data point: Log [Drug], single replicate values
T1 construct: expressed in transfected cells; host or cells: HEK-293T, transient (PEI)

male Fisher F-344 rats = experiment: Morphine intravenous self-administration; type: in vivo, rat; details: for self-administration per session, individual animals (Fig. S9a): 40 mg/kg
[3] = plasma, read-out: Free Plasma Concentration
[4] = plasma, read-out: Plasma Concentration (total)
[5] = plasma, male C57BL/6 mice, s.c. 10 mg/kg
[6] = plasma, male C57BL/6 mice, single s.c. 10 mg/kg
[7] = brain, male C57BL/6 mice, s.c. 10 mg/kg

T1 sequence (P42866 whole entry): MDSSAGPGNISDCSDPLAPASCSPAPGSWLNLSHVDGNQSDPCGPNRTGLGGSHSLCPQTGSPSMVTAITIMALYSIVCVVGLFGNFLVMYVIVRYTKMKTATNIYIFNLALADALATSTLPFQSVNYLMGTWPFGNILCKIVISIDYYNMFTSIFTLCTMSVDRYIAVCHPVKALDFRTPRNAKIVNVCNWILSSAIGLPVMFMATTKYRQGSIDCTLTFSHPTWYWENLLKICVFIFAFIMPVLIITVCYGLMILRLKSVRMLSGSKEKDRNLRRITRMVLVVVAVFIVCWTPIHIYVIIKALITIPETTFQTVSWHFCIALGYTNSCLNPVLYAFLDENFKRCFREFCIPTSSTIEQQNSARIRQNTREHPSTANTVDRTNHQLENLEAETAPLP

SMILES: CCC1CC2CC3c4[nH]c5ccc(O)cc5c4CCN(C2)C13 (centres unmarked) [Noribogaine, Noribogaine hydrochloride]
- concentration at 0.25 h [1, 3]: 2.91 µM
- concentration at 0.25 h [1, 4]: 4.84 µM
- concentration at 0.5 h [1, 3]: 3.34 µM
- concentration at 0.5 h [1, 4]: 5.36 µM
- concentration at 1 h [1, 3]: 1.97 µM
- concentration at 1 h [1, 4]: 4.03 µM
- concentration at 2 h [1, 3]: 1.28 µM
- concentration at 2 h [1, 4]: 3.43 µM
- AUC(0-inf) [1, 5]: 5230 ng·h/mL
- AUC(0-t) [1, 5]: 5220 ng·h/mL
- Cmax [1, 5]: 1980 ng/mL
- AUC(0-inf) [1, 6]: 5230 ng·h/mL
- AUC(0-t) [1, 6]: 5220 ng·h/mL and 17.6 µM·h
- Cmax [1, 6]: 1980 ng/mL and 6.68 µM
- Tmax [1, 7]: 0.5 h
- half-life [1, 7]: 1.71 h
- Vd/F [1, 7]: 2.04 L/kg
- Tmax [1, 5]: 0.5 h
- half-life [1, 5]: 2.76 h
- Vd/F [1, 5]: 7.62 L/kg
- CLf [1, 5]: 31.87 mL/min/kg
- concentration with greater than 20% incidence of arrhythmia-associated events (considerable pro-arrhythmia risk) [2]: ≥ 1 µM
- Alternans % ([2]; 0.1 (µM)): 0%
- Contraction Failure % ([2]; 0.1 (µM)): 0%
- STV % ([2]; 0.1 (µM)): 0%
- After-contraction % ([2]; 0.1 (µM), incidence of cells): 16.67%
- pro-arrhythmic potential [2]: pro-arrhythmic potential by causing after-contractions and contraction failures
- pro-arrhythmic potential ([2]; listed as noribogaine): concentration-dependent pro-arrhythmia risk
- After-contraction % ([2]; 1 (µM)): 33.33%
- Alternans % ([2]; 1 (µM)): 0%
- Contraction Failure % ([2]; 1 (µM)): 0%
- STV % ([2]; 1 (µM)): 0%
- After-contraction % ([2]; 3.16 (µM)): 50%
- Alternans % ([2]; 3.16 (µM)): 0%
- Contraction Failure % ([2]; 3.16 (µM)): 16.67%
- STV % ([2]; 3.16 (µM)): 0%
- After-contraction % ([2]; 10 (µM)): 50%
- Alternans % ([2]; 10 (µM)): 0%
- Contraction Failure % ([2]; 10 (µM)): 16.67%
- STV % ([2]; 10 (µM)): 0%
- Emax (mMOR): 19%
- EC50 (mMOR; (95% CI)): 9.11 µM
- Fig. S5h concentration-response data point (mMOR; M = -4): 24.8885 and 26.6264 and 27.7428 and 17.4963 and -8.212 and 30.4244 and 10.6283 and 6.222 and 21.9832
- Fig. S5h concentration-response data point (mMOR; M = -5): 8.23 and 17.0849 and 17.7259 and 22.4715 and 22.153 and 9.821 and 3.187 and 0.3566 and 4.1
- Fig. S5h concentration-response data point (mMOR; M = -6): 4.604 and 7.207 and -5.062 and 6.292 and -3.562 and -1.853 and 2.1627 and 6.968 and -3.361
- Fig. S5h concentration-response data point (mMOR; M = -7): 5.516 and -3.12 and 0.3751 and -1.392 and 9.617 and 0.0554 and -3.657 and -2.623 and -4.7725
- Fig. S5h concentration-response data point (mMOR; M = -8): 2.807 and -9.751 and -4.108 and 4.434 and 1.624 and 11.894 and 1.215 and 7.908 and -0.803
- Fig. S5h concentration-response data point (mMOR; M = -9): 3.672 and 14.0917 and -2.71 and 1.993 and 2.042 and -8.571 and -5.966 and 3.235 and -0.5438
- Fig. S5h concentration-response data point (mMOR; M = -10): 5.694 and 7.45 and -0.02465 and -4.39 and 8.693 and -12.0081 and -1.935 and 3.572 and 2.108
- Fig. S5h concentration-response data point (mMOR; M = -11): 0.01325 and 7.439 and 24.776 and 1.616 and -6.541 and -6.127 and 16.1632 and 10.3257 and 7.821
- effect on morphine self-administration (male Fisher F-344 rats; 40 mg/kg i.p.): partial, but statistically significant, suppression of morphine intake on days 2 and 3, returning to pre-treatment level of morphine intake on day 5
- self-administration per session, individual animals (Fig. S9a) (male Fisher F-344 rats; session 1): 0 (2×) and 4 (2×) and 8 and 6 (2×) and 2
- self-administration per session, individual animals (Fig. S9a) (male Fisher F-344 rats; session 2): 7 and 19 and 24 and 41 and 27 (2×) and 15 (2×)
- self-administration per session, individual animals (Fig. S9a) (male Fisher F-344 rats; session 3): 17 and 21 and 50 and 28
- self-administration per session, individual animals (Fig. S9a) (male Fisher F-344 rats; session 5): 49 and 40 and 50 (2×) and 36 (2×) and 31 and 21
- self-administration per session, individual animals (Fig. S9a) (male Fisher F-344 rats; session 6): 50 (5×) and 42 and 26 and 19
- self-administration per session, individual animals (Fig. S9a) (male Fisher F-344 rats; session 7): 29 (2×) and 15 and 50 (4×) and 17
- self-administration per session, individual animals (Fig. S9a) (male Fisher F-344 rats; session 8): 30 (2×) and 50 (4×) and 28 and 26
- self-administration per session, individual animals (Fig. S9a) (male Fisher F-344 rats; session 9): 26 and 35 and 50 (3×) and 22 and 28 and 13
- self-administration per session, individual animals (Fig. S9a) (male Fisher F-344 rats; session 10): 34 and 25 and 50 (3×) and 20 and 41 and 14
- self-administration per session, individual animals (Fig. S9a) (male Fisher F-344 rats; session 11): 33 and 19 and 50 (3×) and 9 and 26 and 3
- self-administration per session, individual animals (Fig. S9a) (male Fisher F-344 rats; session 12): 50 (5×) and 14 and 40 and 19
- self-administration per session, individual animals (Fig. S9a) (male Fisher F-344 rats; session 13): 50 (3×) and 23 and 33 and 28
- self-administration per session, individual animals (Fig. S9a) (male Fisher F-344 rats; session 14): 50 (3×) and 21 and 38 and 17
- self-administration per session, individual animals (Fig. S9a) (male Fisher F-344 rats; session 15): 50
